Measured values as given in ChEMBL document CHEMBL5137065, “Recent Advances with KDM4 Inhibitors and Potential Applications” (J Med Chem, 2022).
One block for each compound: values may come before it. Positions of bridges follow the written chain, without caps; N, C: chain ends. Non-standard residues stand in square brackets, D forms with d. Residues, ends and D or L forms follow the SMILES beside them.

How the values were obtained:
[1] = target: T1, Lysine-specific demethylase 4A (Homo sapiens, UniProt O75164); test: Inhibition of KDM4A (unknown origin) measured by LANCEUltra assay
T1 sequence (O75164 whole entry): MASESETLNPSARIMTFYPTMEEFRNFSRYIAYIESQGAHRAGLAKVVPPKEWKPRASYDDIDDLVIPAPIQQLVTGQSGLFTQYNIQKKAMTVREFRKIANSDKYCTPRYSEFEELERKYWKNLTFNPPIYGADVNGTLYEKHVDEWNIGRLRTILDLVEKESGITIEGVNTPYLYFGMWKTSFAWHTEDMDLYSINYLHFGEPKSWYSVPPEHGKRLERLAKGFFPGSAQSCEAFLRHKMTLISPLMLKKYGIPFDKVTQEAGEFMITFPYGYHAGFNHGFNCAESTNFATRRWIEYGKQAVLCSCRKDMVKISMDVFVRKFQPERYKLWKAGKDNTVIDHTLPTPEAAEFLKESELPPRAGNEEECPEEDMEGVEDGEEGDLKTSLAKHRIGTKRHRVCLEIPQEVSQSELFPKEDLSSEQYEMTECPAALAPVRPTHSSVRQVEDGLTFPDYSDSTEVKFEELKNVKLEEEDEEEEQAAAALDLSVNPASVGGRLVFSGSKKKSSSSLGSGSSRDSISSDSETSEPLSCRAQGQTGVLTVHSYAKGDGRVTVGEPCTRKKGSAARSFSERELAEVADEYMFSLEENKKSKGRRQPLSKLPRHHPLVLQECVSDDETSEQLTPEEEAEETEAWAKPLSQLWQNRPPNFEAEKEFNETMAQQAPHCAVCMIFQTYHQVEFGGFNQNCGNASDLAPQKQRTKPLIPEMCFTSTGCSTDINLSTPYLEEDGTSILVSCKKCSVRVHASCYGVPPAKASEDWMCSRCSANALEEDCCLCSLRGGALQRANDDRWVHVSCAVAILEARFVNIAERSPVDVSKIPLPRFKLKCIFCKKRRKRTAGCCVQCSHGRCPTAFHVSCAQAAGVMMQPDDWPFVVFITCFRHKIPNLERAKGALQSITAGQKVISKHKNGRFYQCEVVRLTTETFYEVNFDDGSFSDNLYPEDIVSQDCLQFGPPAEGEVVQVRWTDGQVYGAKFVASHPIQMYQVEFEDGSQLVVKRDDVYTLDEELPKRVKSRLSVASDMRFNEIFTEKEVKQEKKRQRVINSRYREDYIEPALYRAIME

[2] = target: T1, Lysine-specific demethylase 4A; test: Inhibition of KDM4A (unknown origin) measured by formaldehyde dehydrogenase (FDH)-coupled fluorescence assay
[3] = target: T1, Lysine-specific demethylase 4A; test: Inhibition of KDM4A in human KYSE-150 cells assessed as increase in H3K9me3 level; assay type: cell-based, KYSE-150 cell line
HL-60 = test: Antiproliferative activity against human HL-60 cells; assay type: functional
KYSE-150 cell line = test: Antiproliferative activity against human KYSE-150 cells; assay type: functional
[4] = target: T2, Lysine-specific demethylase 4C (Homo sapiens, UniProt Q9H3R0); test: Inhibition of KDM4C (unknown origin) measured by AlphaScreen assay
T2 sequence (Q9H3R0 whole entry): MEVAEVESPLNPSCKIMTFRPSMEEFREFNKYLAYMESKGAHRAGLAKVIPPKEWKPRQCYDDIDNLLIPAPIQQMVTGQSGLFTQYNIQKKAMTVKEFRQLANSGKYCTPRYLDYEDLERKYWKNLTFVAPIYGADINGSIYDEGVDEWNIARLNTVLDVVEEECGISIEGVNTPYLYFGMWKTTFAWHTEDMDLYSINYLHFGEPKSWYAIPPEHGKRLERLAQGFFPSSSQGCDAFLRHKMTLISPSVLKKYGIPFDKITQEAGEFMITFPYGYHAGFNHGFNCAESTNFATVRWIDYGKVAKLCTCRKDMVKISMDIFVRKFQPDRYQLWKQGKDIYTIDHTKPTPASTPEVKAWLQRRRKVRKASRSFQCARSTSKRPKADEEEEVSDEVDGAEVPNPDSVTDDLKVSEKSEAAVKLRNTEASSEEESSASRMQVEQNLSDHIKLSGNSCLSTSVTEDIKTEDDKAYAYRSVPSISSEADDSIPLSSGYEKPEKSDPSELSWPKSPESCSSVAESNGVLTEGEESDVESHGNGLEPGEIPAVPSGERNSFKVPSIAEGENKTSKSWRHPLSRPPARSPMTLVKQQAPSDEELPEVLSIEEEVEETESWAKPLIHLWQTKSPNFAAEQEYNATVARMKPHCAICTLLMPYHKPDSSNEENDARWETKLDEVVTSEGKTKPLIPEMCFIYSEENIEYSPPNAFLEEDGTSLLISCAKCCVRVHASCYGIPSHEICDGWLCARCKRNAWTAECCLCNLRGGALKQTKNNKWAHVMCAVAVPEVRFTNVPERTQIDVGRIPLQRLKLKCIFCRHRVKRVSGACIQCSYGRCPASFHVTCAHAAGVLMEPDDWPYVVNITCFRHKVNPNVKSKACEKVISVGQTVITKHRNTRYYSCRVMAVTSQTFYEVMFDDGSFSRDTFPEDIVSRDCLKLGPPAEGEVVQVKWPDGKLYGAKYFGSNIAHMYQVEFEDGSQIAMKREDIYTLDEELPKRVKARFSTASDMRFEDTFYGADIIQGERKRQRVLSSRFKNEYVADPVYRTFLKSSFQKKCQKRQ

[5] = target: T1, Lysine-specific demethylase 4A; test: Inhibition of KDM4A (unknown origin) measured by AlphaScreen assay
[6] = target: Lysine-specific demethylase 5A (Homo sapiens, UniProt P29375); test: Inhibition of KDM5A (unknown origin) measured by AlphaScreen assay
Chain of Lysine-specific demethylase 5A (P29375 whole entry): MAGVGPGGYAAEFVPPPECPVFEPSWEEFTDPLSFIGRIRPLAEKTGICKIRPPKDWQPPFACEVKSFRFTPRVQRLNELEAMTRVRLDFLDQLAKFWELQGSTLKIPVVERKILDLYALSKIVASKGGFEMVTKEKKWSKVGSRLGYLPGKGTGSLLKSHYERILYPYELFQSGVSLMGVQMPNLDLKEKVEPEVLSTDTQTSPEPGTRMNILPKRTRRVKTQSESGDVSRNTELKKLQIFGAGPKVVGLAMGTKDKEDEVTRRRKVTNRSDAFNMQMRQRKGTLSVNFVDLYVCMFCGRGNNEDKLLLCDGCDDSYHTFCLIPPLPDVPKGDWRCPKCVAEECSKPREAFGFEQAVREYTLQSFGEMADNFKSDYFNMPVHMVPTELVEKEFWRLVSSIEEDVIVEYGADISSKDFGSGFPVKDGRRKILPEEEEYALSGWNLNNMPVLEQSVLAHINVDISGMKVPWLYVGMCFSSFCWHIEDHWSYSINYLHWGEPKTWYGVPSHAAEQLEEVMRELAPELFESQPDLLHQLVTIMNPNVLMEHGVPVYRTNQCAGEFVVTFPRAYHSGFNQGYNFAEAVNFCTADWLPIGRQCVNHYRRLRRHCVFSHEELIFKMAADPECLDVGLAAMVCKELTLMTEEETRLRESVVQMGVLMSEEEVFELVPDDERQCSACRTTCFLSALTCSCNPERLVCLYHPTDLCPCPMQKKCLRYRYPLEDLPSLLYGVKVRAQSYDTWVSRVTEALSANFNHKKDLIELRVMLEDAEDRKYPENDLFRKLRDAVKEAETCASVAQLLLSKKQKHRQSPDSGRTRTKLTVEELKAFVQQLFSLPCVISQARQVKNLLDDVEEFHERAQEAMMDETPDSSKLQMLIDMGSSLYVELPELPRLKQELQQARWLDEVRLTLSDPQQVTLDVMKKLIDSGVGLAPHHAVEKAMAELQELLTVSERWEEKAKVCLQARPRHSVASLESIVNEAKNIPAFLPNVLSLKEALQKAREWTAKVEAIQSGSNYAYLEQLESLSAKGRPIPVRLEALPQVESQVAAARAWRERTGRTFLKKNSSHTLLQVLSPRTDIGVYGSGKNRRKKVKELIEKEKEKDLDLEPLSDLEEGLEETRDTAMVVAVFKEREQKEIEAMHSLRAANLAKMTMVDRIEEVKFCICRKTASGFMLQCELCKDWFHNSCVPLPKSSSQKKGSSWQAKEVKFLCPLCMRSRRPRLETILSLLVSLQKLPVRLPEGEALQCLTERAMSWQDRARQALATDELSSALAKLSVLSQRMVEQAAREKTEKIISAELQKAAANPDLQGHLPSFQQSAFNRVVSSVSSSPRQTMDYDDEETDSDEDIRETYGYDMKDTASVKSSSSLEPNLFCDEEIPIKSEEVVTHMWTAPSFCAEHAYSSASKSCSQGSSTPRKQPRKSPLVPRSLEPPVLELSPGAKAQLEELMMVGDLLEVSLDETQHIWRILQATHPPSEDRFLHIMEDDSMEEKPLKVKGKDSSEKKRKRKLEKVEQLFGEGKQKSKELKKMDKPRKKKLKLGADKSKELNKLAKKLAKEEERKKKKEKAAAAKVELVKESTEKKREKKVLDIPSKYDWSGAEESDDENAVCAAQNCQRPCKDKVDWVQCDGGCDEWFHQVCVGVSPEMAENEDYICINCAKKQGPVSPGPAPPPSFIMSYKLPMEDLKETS

[7] = target: Lysine-specific demethylase 6B (Homo sapiens, UniProt O15054); test: Inhibition of KDM6B (unknown origin) measured by AlphaScreen assay
Chain of Lysine-specific demethylase 6B (O15054 whole entry): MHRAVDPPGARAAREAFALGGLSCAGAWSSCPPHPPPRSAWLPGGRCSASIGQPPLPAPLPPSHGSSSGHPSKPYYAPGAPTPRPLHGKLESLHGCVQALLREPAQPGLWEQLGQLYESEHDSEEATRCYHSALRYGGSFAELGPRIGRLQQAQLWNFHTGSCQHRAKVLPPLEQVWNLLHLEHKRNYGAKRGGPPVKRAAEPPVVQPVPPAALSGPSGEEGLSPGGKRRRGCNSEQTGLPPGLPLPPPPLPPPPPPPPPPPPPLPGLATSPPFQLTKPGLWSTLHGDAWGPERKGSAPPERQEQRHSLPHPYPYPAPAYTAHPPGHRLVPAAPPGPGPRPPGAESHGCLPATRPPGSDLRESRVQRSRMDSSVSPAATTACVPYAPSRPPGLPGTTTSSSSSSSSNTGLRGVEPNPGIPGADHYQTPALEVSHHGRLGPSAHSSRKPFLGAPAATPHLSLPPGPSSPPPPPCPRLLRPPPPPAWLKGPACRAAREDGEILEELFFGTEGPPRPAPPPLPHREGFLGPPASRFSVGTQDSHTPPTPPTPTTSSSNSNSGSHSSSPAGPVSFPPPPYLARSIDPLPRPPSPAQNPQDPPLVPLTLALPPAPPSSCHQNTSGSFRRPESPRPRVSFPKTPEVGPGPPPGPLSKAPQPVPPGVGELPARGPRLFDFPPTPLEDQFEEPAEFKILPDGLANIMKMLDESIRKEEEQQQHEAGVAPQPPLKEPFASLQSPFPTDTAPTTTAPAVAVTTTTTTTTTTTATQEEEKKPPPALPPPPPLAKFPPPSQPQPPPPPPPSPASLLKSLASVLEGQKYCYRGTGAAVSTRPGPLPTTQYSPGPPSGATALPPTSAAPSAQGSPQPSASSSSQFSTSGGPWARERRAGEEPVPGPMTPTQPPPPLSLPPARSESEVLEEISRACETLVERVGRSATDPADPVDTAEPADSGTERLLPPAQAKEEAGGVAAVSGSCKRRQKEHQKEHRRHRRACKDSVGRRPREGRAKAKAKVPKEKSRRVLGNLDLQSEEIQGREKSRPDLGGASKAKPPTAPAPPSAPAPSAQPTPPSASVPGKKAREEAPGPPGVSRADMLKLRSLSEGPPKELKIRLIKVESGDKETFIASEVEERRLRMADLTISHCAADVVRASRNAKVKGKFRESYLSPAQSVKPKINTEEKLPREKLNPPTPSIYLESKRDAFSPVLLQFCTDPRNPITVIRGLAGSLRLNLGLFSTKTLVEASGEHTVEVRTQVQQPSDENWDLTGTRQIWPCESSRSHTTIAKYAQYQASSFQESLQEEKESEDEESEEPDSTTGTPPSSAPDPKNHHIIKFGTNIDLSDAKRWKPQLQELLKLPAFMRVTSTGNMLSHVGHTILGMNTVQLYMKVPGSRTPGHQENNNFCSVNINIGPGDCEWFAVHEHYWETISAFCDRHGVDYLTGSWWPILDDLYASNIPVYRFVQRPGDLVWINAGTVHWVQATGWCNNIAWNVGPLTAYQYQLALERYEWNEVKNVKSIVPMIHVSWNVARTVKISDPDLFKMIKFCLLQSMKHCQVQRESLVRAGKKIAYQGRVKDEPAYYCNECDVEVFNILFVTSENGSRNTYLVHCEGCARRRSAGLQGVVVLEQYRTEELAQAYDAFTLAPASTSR

[8] = target: T3, Lysine-specific demethylase 4B (Homo sapiens, UniProt O94953); test: Inhibition of KDM4B (unknown origin) measured by AlphaScreen assay
T3 sequence (O94953 whole entry): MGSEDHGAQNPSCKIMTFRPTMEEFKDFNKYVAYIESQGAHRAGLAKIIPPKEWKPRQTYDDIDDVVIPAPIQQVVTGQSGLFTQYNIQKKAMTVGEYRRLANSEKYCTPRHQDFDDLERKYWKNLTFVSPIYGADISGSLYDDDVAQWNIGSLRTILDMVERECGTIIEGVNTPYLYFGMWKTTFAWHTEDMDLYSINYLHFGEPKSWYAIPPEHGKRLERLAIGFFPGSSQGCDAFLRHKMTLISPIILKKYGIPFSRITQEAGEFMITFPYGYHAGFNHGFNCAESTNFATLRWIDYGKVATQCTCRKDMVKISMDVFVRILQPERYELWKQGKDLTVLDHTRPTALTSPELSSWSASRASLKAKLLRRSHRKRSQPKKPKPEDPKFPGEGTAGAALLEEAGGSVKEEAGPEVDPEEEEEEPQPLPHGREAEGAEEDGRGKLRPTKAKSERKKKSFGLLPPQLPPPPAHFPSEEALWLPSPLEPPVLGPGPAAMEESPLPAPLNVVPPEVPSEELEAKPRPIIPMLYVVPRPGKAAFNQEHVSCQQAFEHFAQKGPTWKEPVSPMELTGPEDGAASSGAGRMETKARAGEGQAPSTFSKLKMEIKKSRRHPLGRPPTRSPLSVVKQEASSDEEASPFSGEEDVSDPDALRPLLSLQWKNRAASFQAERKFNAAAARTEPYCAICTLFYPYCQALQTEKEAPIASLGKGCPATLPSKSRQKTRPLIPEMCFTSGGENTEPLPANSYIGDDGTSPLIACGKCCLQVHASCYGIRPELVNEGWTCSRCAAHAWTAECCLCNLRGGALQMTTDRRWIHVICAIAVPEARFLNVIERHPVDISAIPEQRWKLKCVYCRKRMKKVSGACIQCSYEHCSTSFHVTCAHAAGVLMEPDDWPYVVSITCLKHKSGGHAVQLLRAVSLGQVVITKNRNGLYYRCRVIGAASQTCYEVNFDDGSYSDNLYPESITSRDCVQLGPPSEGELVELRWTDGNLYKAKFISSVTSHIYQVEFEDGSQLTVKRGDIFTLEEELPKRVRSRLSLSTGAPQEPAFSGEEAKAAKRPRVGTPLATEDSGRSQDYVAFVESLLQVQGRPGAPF

[9] = target: T4, Lysine-specific demethylase 2A (Homo sapiens, UniProt Q9Y2K7); test: Inhibition of KDM2A in human MIA PaCa-2 cells assessed as induction of H3K36me2 measured by immunofluorescence assay; assay type: cell-based
T4 sequence (Q9Y2K7 whole entry): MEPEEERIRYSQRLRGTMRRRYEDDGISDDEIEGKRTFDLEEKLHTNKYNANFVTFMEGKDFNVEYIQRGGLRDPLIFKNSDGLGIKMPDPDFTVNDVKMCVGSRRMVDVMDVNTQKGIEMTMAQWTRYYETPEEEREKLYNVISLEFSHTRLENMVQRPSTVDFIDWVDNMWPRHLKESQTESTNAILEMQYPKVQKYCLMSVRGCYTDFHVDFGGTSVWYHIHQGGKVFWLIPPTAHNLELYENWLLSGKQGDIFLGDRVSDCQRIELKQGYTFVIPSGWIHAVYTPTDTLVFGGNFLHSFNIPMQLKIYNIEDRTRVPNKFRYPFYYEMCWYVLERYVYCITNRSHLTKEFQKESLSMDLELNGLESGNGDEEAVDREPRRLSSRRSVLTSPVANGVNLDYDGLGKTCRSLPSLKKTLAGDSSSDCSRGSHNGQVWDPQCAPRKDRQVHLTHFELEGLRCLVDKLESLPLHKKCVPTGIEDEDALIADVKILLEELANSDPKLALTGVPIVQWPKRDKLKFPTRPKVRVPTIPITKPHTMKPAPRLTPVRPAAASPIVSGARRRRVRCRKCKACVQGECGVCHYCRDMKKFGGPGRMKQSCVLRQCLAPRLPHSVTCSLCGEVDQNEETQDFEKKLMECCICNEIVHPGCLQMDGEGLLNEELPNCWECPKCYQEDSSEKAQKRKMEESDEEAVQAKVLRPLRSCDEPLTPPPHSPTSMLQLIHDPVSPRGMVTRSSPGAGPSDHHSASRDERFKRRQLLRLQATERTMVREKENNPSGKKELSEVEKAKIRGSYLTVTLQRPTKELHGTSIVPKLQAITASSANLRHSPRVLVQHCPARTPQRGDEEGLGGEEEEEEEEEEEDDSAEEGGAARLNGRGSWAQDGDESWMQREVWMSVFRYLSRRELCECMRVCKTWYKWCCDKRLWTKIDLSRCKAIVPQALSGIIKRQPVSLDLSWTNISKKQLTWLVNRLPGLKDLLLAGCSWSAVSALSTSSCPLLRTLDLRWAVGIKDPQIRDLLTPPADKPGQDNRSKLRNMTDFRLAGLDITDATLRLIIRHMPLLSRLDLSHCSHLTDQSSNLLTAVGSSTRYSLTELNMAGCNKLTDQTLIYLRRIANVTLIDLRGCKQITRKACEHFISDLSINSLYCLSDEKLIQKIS

[10] = target: T1, Lysine-specific demethylase 4A

SMILES: Cc1c(O)c(=O)ccn1C [DEFERIPRONE]
IC50 [1]: 3330 nM
IC50 [2]: 3220 nM

SMILES: CC(C)[C@@H]1NC(=O)[C@@H](Cc2ccc(O)cc2)NC(=O)CSC[C@@H](C(N)=O)NC(=O)[C@H]([C@@H](C)O)NC(=O)[C@H](Cc2ccc(O)cc2)NC(=O)[C@H](Cc2c[nH]c3ccccc23)NC(=O)[C@H](CCCNC(=N)N)NC(=O)[C@H](Cc2c[nH]c3ccccc23)NC(=O)CNC(=O)[C@H](CO)NC(=O)[C@H](CCCNC(=N)N)NC(=O)[C@H]([C@@H](C)O)NC(=O)[C@H](CC(N)=O)NC(=O)[C@H](Cc2ccc(O)cc2)NC1=O ({CH2CO}-[dY]VYNTRSGWRWYTC-NH2; thioether N-14)
IC50 [4]: 33 nM
IC50 [5]: 33 nM

SMILES: CO[C@H]1/C=C\C=C(/C)C(=O)NC2=CC(=O)C(NCCN(C)C)=C(C[C@@H](C)C[C@H](OC)[C@H](O)[C@@H](C)/C=C(\C)[C@@H]1OC(N)=O)C2=O (stereo in doubt) [ALVESPIMYCIN]
IC50 [6]: 130 nM
IC50 [4]: 700 nM
IC50 [7]: 400 nM
IC50 [8]: 700 nM

Second part, led by results:

EC50 [3]: 3300 nM
GI50 (HL-60): 1700 nM
SMILES: Oc1ccccc1-c1nc(-c2ccccc2O)n(-c2ccccc2)n1
GI50 (KYSE-150 cell line): 450 nM

IC50 [9]: 280 nM
IC50 [10]: 280 nM
SMILES: CCCCCC[n+]1ccccc1C=Cc1ccc(N(C)C)cc1
